According to patent US6844429B2, “Fullerene derivative and composition comprising the same” (San-Ei Gen F.F.I., priority 2001, dated 2005):

How the values were obtained:
[1] = Quantum yield measurement of singlet oxygen (DPBF absorbance decay under light irradiation); type: physicochemical; conditions: singlet oxygen quantum yield relative to tetraphenylporphyrin; DMSO, 27° C., 6.5×10^−7 M fullerene derivative, DPBF absorbance at 418 nm
Experimental: A DMSO solution containing 5.5×10^−5 M of 1,3-diphenylisobenzofuran (DPBF) was prepared, maintaining the water temperature in a waterbath at 27° C. 3 mL of the DMSO solution was poured into a quartz cell and a DMSO solution containing 1.5×10^−5 M of fullerene derivatives was added so that the concentration of the resulting solution is set to 6.5×10^−7 M. Subsequently, oxygen was bubbled through the solution for one minute or more. The cell was set in position within the waterbath, stirred using a multistirrer and irradiated with light every ten seconds to measure the absorbance of the DPBF at 418 nm. Natural logarithm of the absorbance thus measured was plotted against time of light irradiation to find the gradient. Thus, a relative scale with respect to the quantum yield of tetraphenylporphyrin (φ^1O2) was calculated.

HeLa cells = experiment: Phototoxicity test: viability of HeLa cells by MTT assay, without and with light irradiation; type: cell-based
Experimental: The cytotoxicity of (Mal-(CH2)2—N)C60 (hereafter, referred to as Compound A) obtained in Example 12 was evaluated by the viability of HeLa cells using an MTT assay (Carmichal, J., W. G. DeGraff, A. F.Gazdar, J. D. Minna and J. B. Mitchell, Cancer Res., 1987, 47, 936-942). HeLa cells (5×10^3 cells/well) were incubated in a Dulbecco's modified Eagle's medium (DMEM) containing 10% fetal bovine serum (FBS) on a 96-well plate in 5% CO2 at 37° C. for 24 hours. After washing with phosphate buffered saline (PBS), 100 μl of (Mal-(CH2)2—N) C60 (DMEM) (−) solution (25 μM) as a fullerene derivative of the present invention was added to the cells, which were incubated for two hours. The cells were washed with PBS, replaced with 100 μl of DMEM(+) and theie viability was measured using the MTT assay. The viability was determined by measuring the absorbance at 570 nm (OD570). […] The ratio was calculated by the following formula: Cell survival ratio (%)=(OD 570 in the presence of Compound A/OD 570 in the absence of Compound A)×100. A cell survival ratio of 100% means the absence of cytotoxicity.
HeLa cells (5×10^3 cells/well) were treated in the same the manner as in the above. Compound A was added to the cells and the resulting cell was irradiated with a 500 W halogen lamp for 8 minutes. After 24 hours' incubation, the supernatant was removed and formazan was dissolved in 100 μl of DMSO. Thereafter, the viability was determined by measuring the absorbance at 570 nm (OD570). […] The ratio was calculated by the following formula: Cell survival ratio (%)=(OD 570 in the presence of Compound A with irradiation/OD 570 in the absence of Compound A with irradiation)×100.
Evaluations were made in the same manner as in Test Example 2 except that each of (Mal-(CH2)2—N)C60 (Compound A) obtained in Example 12 and (D-Xyl-(CH2)2—N)C60(hereafter, referred to as Compound B) obtained in Example 14 was used in amounts 1, 5, 10, 25 and […]. The obtained results of the cytotoxicities of Compounds A and B are shown in FIGS. 2 and 3, respectively.

Compound	Relative scale for φ^1O2 [1]	further results
N,N′-bis[2-(β-D-galactopyranosyloxy)ethyl] [5,6]-diazafulleroid [(D-Gal-(CH2)2—N)2C60]	0.7	–
N-[2-(2,3,6,8,9,13-hepta-O-acetyl-β-(α-D-glucopyranosyl (1-4)-D-glucopyranosyloxy)ethyl) [5,6]-azafulleroid [(AcMal-(CH2)2—N)C60]	0.7	–
N,N′-bis[2-(β-D-xylopyranosyloxy)ethyl] [5,6]-diazafulleroid [(D-Xyl-(CH2)2—N)2C60]	0.3	–
N, N′-bis [2-(2,3,4,6-tetra-O-acetyl-α-D-mannopyranosyloxy)ethyl] [5,6]-diazafulleroid [(D-AcMan-(CH2)2—N)2C60]	0.7	–
N,N′-bis[2-(β-(α-D-glucopyranosyl(1-4)-D-glucopyranosyloxy)ethyl) [5,6]-diazafulleroid [(Mal-(CH2)2—N)2C60]	0.8	–
OC1COC(OCCn2c3c4c5c6c7c8c9c%10c%11c%12c%13c%10c%10c8c8c%14c%10c%10c%13c%13c%15c%12c%12c%16c%11c%11c9c7c7c9c%11c%16c%11c%16c%12c%15c%12c%15c%13c%10c%10c%14c(c4c86)c4c%10c%15c6c%12c%16c8c%11c9c(c75)c3c8c6c42)C(O)C1O [(D-Xyl-(CH2)2—N)C60, N-[2-(β-D-xylopyranosyloxy)ethyl][5,6]-azafulleroid]	0.3	–
N,Nα-bis[2-(2,3,4-tri-O-acetyl-β-D-xylopyranosyloxy)ethyl] [5,6]-diazafulleroid [(D-AcXyl-(CH2)2—N)2C60]	0.3	–
N-[2-(2,3,4-tri-O-acetyl-β-D-xylopyranosyloxy)ethyl] [5,6]-azafulleroid [(D-AcXyl-(CH2)2—N)C60]	0.4	–
N-[2-(2,3,4,6-tetra-O-acetyl-β-D-glucopyranosyloxy)ethyl][5,6]-azafulleroid [(D-AcGlc-(CH2)2—N)C60]	0.6	–
N-[2-(β-D-glucopyranosyloxy)ethyl] [5,6]-azafulleroid [(D-Glc-(CH2)2—N)C60]	0.6	–
N-[2-(2,3,4,6-tetra-O-acetyl-β-D-galactopyranosyloxy)ethyl] [5,6]-azafulleroid [(D-AcGal-(CH2)2—N)C60]	0.7	–
N-[2-(β-(α-D-glucopyranosyl(1-4)-D-glucopyranosyloxy)ethyl) [5,6]-azafulleroid [(Mal-(CH2)2—N)C60]	0.7	toxicity, share of the cells (photocytotoxicity) (HeLa cells; 10 μM, light irradiation as in Test Example 2, FIG. 2): about 50%; cytotoxicity (cell survival ratio) with light irradiation (HeLa cells; 25 μM, 500 W halogen lamp for 8 minutes, 24 hours' incubation, MTT OD570, FIG. 1): cytotoxicity is observed; cytotoxicity (cell survival ratio) without light irradiation (HeLa cells; 25 μM, two hours incubation, no light irradiation, MTT OD570, FIG. 1): cytotoxicity is not observed
OCC1OC(OCCn2c3c4c5c6c7c8c9c%10c%11c%12c%13c%10c%10c8c8c%14c%10c%10c%13c%13c%15c%12c%12c%16c%11c%11c9c7c7c9c%11c%16c%11c%16c%12c%15c%12c%15c%13c%10c%10c%14c(c4c86)c4c%10c%15c6c%12c%16c8c%11c9c(c75)c3c8c6c42)C(O)C(O)C1O [(D-Gal-(CH2)2—N)C60, N-[2-(β-D-galactopyranosyloxy)ethyl][5,6]-azafulleroid]	0.7	–
N-[2-(α-D-mannopyranosyloxy)ethyl] [5,6]-azafulleroid [(D-Man-(CH2—N)C60]	0.5	–
N, N′-bis[2-(β-D-glucopyranosyloxy)ethyl][5,6]-diazafulleroid [(D-Glc-(CH2)2—N)2C60]	0.6	–
N, N′-bis[2-(2,3,4,6-tetra-O-acetyl-β-D-galactopyranosyloxy)ethyl] [5,6]-diazafulleroid [(D-AcGal-(CH2)2—N)2C60]	0.5	–
N, Nα-bis[2-(2,3,4,6-tetra-O-acetyl-β-D-glucopyranosyloxy)ethyl] [5,6]-diazafulleroid [(D-AcGlc-(CH2)2—N)2C60]	0.5	–
N,N′-bis[2-(α-D-mannopyranosyloxy)ethyl] [5,6]-diazafulleroid [(D-Man-(CH2)2—N)2C60]	0.5	–
N-[2-(2,3,4,6-tetra-O-acetyl-α-D-mannopyranosyloxy)ethyl] [5,6]-azafulleroid [(D-AcMan-(CH2)2—N)C60]	0.8	–
N, N′-bis[2-(2,3,6,8,9,13-hepta-O-acetyl-β-(α-D-glucopyranosyl (1-4)-D-glucopyranosyloxy)ethyl) [5,6]-diazafulleroid [(AcMal-(CH2)2—N)2C60]	0.6	–
